Results reported in PubChem BioAssay (NCI).
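How tested: cells in 96-well plates exposed to compound for 48 hours at five concentrations. The concentration for full growth arrest is given as TGI.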

Experiments:
Experiment in all cases: NCI tumour cell line growth inhibition, 48 h
[1] = system: OVCAR-3 ovarian
[2] = system: K-562 leukemia
[3] = system: M19-MEL melanoma
[4] = system: HOP-92 NSCLC
[5] = system: UO-31 renal
[6] = system: M14 melanoma
[7] = system: CAKI-1 renal
[8] = system: HCT-15 colon
[9] = system: XF 498 CNS
[10] = system: NCI-H226 lung
[11] = system: SR leukemia
[12] = system: RXF 393 renal
[13] = system: SF-268 CNS
[14] = system: SNB-78 CNS
[15] = system: DMS 114 small cell lung
[16] = system: SK-OV-3 ovarian
[17] = system: COLO 205 colon
[18] = system: LXFL 529 NSCLC
[19] = system: SK-MEL-5 melanoma
[20] = system: OVCAR-5 ovarian
[21] = system: MOLT-4 leukemia
[22] = system: DMS 273 small cell lung
[23] = system: KM12 colon
[24] = system: ACHN renal
[25] = system: DLD-1 colon
[26] = system: NCI-H460 lung
[27] = system: OVCAR-4 ovarian
[28] = system: SF-539 CNS
[29] = system: A549 NSCLC
[30] = system: CCRF-CEM leukemia
[31] = system: IGROV1 ovarian
[32] = system: OVCAR-8 ovarian
[33] = system: HT29 colon
[34] = system: HL-60(TB) leukemia
[35] = system: KM20L2 colon
[36] = system: SN12C renal
[37] = system: MALME-3M melanoma
[38] = system: HCT-116 colon
[39] = system: SNB-19 CNS
[40] = system: SK-MEL-28 melanoma
[41] = system: HOP-62 NSCLC
[42] = system: RPMI-8226 leukemia
[43] = system: NCI-H23 lung
[44] = system: U251 CNS
[45] = system: 786-0 renal
[46] = system: SF-295 CNS
[47] = system: NCI-H522 lung
[48] = system: SW-620 colon
[49] = system: HCC-2998 colon
[50] = system: UACC-62 melanoma
[51] = system: UACC-257 melanoma
[52] = system: LOX IMVI melanoma
[53] = system: SNB-75 CNS
[54] = system: A498 renal
[55] = system: TK-10 renal
[56] = system: EKVX NSCLC
[57] = system: SK-MEL-2 melanoma
[58] = system: HOP-18 NSCLC

## CN(C)/N=C(/c1nc2ccc([N+](=O)[O-])cc2[nH]c1=O)C(O)c1ccco1 (stereo not given)
[1]
  TGI: > 100 µM
[2]
  TGI: > 100 µM
[3]
  TGI: > 100 µM
[4]
  TGI: > 100 µM
[5]
  TGI: 90.5 µM
[6]
  TGI: > 100 µM
[7]
  TGI: > 100 µM
[8]
  TGI: > 100 µM
[9]
  TGI: > 100 µM
[10]
  TGI: > 100 µM
[11]
  TGI: > 100 µM
[12]
  TGI: > 100 µM
[13]
  TGI: > 100 µM
[14]
  TGI: > 100 µM
[15]
  TGI: > 100 µM
[16]
  TGI: > 100 µM
[17]
  TGI: > 100 µM
[18]
  TGI: > 100 µM
[19]
  TGI: > 100 µM
[20]
  TGI: > 100 µM
[21]
  TGI: > 100 µM
[22]
  TGI: > 100 µM
[23]
  TGI: > 100 µM
[24]
  TGI: > 100 µM
[25]
  TGI: > 100 µM
[26]
  TGI: > 100 µM
[27]
  TGI: > 100 µM
[28]
  TGI: > 100 µM
[29]
  TGI: > 100 µM
[30]
  TGI: > 100 µM
[31]
  TGI: > 100 µM
[32]
  TGI: > 100 µM
[33]
  TGI: > 100 µM
[34]
  TGI: > 100 µM
[35]
  TGI: > 100 µM
[36]
  TGI: > 100 µM
[37]
  TGI: > 100 µM
[38]
  TGI: > 100 µM
[39]
  TGI: > 100 µM
[40]
  TGI: > 100 µM
[41]
  TGI: > 100 µM
[42]
  TGI: > 100 µM
[43]
  TGI: > 100 µM
[44]
  TGI: > 100 µM
[45]
  TGI: > 100 µM
[46]
  TGI: > 100 µM
[47]
  TGI: 92.2 µM
[48]
  TGI: > 100 µM
[49]
  TGI: > 100 µM
[50]
  TGI: > 100 µM
[51]
  TGI: > 100 µM
[52]
  TGI: > 100 µM
[53]
  TGI: > 100 µM

## O=c1[nH]c2cc([N+](=O)[O-])ccc2nc1/C(=N/Nc1ccccc1)C(O)c1ccc(C(O)/C(=N\Nc2ccccc2)c2cnc3cc([N+](=O)[O-])ccc3n2)cc1 (stereo not given)
[1]
  TGI: > 100 µM
[2]
  TGI: > 100 µM
[3]
  TGI: > 100 µM
[4]
  TGI: > 100 µM
[5]
  TGI: > 100 µM
[6]
  TGI: > 100 µM
[7]
  TGI: > 100 µM
[54]
  TGI: > 100 µM
[11]
  TGI: > 100 µM
[12]
  TGI: > 100 µM
[13]
  TGI: > 100 µM
[15]
  TGI: > 100 µM
[16]
  TGI: > 100 µM
[17]
  TGI: > 100 µM
[19]
  TGI: > 100 µM
[20]
  TGI: 72.9 µM
[21]
  TGI: > 100 µM
[23]
  TGI: > 100 µM
[24]
  TGI: > 100 µM
[26]
  TGI: > 100 µM
[27]
  TGI: > 100 µM
[28]
  TGI: > 100 µM
[29]
  TGI: > 100 µM
[30]
  TGI: > 100 µM
[31]
  TGI: > 100 µM
[32]
  TGI: > 100 µM
[33]
  TGI: > 100 µM
[34]
  TGI: > 100 µM
[35]
  TGI: > 100 µM
[36]
  TGI: > 100 µM
[55]
  TGI: > 100 µM
[37]
  TGI: > 100 µM
[38]
  TGI: > 100 µM
[56]
  TGI: > 100 µM
[39]
  TGI: > 100 µM
[40]
  TGI: > 100 µM
[57]
  TGI: > 100 µM
[41]
  TGI: > 100 µM
[42]
  TGI: > 100 µM
[43]
  TGI: > 100 µM
[45]
  TGI: > 100 µM
[46]
  TGI: > 100 µM
[47]
  TGI: > 100 µM
[48]
  TGI: > 100 µM
[49]
  TGI: 87.1 µM
[50]
  TGI: > 100 µM
[51]
  TGI: > 100 µM

## O=C(CC1(O)C(=O)Nc2ccccc21)c1ccco1 (stereo not given)
[1]
  TGI: > 100 µM
[2]
  TGI: > 100 µM
[3]
  TGI: > 100 µM
[4]
  TGI: > 100 µM
[5]
  TGI: > 100 µM
[6]
  TGI: > 100 µM
[7]
  TGI: > 100 µM
[54]
  TGI: > 100 µM
[8]
  TGI: > 100 µM
[9]
  TGI: > 100 µM
[10]
  TGI: > 100 µM
[12]
  TGI: > 100 µM
[13]
  TGI: > 100 µM
[14]
  TGI: > 100 µM
[15]
  TGI: > 100 µM
[16]
  TGI: > 100 µM
[17]
  TGI: > 100 µM
[18]
  TGI: > 100 µM
[19]
  TGI: > 100 µM
[20]
  TGI: > 100 µM
[21]
  TGI: > 100 µM
[22]
  TGI: > 100 µM
[24]
  TGI: > 100 µM
[25]
  TGI: > 100 µM
[26]
  TGI: > 100 µM
[27]
  TGI: > 100 µM
[28]
  TGI: > 100 µM
[29]
  TGI: > 100 µM
[31]
  TGI: > 100 µM
[32]
  TGI: > 100 µM
[33]
  TGI: > 100 µM
[34]
  TGI: > 100 µM
[35]
  TGI: > 100 µM
[36]
  TGI: > 100 µM
[55]
  TGI: > 100 µM
[37]
  TGI: > 100 µM
[38]
  TGI: > 100 µM
[56]
  TGI: > 100 µM
[39]
  TGI: > 100 µM
[40]
  TGI: > 100 µM
[57]
  TGI: > 100 µM
[41]
  TGI: > 100 µM
[42]
  TGI: > 100 µM
[43]
  TGI: > 100 µM
[45]
  TGI: > 100 µM
[46]
  TGI: > 100 µM
[47]
  TGI: > 100 µM
[48]
  TGI: > 100 µM
[50]
  TGI: > 100 µM
[51]
  TGI: > 100 µM
[52]
  TGI: > 100 µM
[53]
  TGI: > 100 µM

## CCN(CC)CCCC(C)Nc1ccnc2ccc3nn(C)nc3c12 (stereo not given)
[58]
  TGI: > 100 µM
[2]
  TGI: 86.3 µM
[3]
  TGI: > 100 µM
[5]
  TGI: > 100 µM
[6]
  TGI: 90.1 µM
[7]
  TGI: > 100 µM
[54]
  TGI: > 100 µM
[10]
  TGI: > 100 µM
[11]
  TGI: > 100 µM
[13]
  TGI: > 100 µM
[14]
  TGI: > 100 µM
[16]
  TGI: > 100 µM
[17]
  TGI: > 100 µM
[18]
  TGI: > 100 µM
[19]
  TGI: > 100 µM
[20]
  TGI: > 100 µM
[21]
  TGI: > 100 µM
[22]
  TGI: 91.5 µM
[23]
  TGI: > 100 µM
[24]
  TGI: > 100 µM
[25]
  TGI: > 100 µM
[26]
  TGI: > 100 µM
[28]
  TGI: > 100 µM
[29]
  TGI: > 100 µM
[30]
  TGI: > 100 µM
[31]
  TGI: > 100 µM
[32]
  TGI: > 100 µM
[33]
  TGI: > 100 µM
[34]
  TGI: > 100 µM
[35]
  TGI: > 100 µM
[36]
  TGI: > 100 µM
[55]
  TGI: > 100 µM
[37]
  TGI: > 100 µM
[38]
  TGI: > 100 µM
[56]
  TGI: > 100 µM
[39]
  TGI: > 100 µM
[41]
  TGI: > 100 µM
[42]
  TGI: > 100 µM
[43]
  TGI: > 100 µM
[44]
  TGI: > 100 µM
[45]
  TGI: > 100 µM
[46]
  TGI: > 100 µM
[48]
  TGI: 75.7 µM
[49]
  TGI: > 100 µM
[50]
  TGI: > 100 µM
[51]
  TGI: > 100 µM
[52]
  TGI: 41.1 µM
[53]
  TGI: > 100 µM
